Test results taken from ChEMBL document CHEMBL2034857, “Discovery of the macrocycle (9E)-15-(2-(pyrrolidin-1-yl)ethoxy)-7,12,25-trioxa-19,21,24-triaza-tetracyclo[18.3.1.1(2,5).1(14,18)]hexacosa-1(24),2,4,9,14(26),15,17,20,22-nonaene (SB1578), a potent inhibitor of janus kinase 2/fms-like tyrosine kinase-3 (JAK2/FLT3) for the treatment of rheumatoid …” (J Med Chem, 2012).
pIC50: −log10 of the molar value.

Legend:
[1] = biological target: T1, Tyrosine-protein kinase JAK3 (Homo sapiens, UniProt P52333); assay: Inhibition of recombinant JAK3 using poly(Glu,Ala,Tyr) as substrate after 2 hrs by luminometric assay
T1 sequence (P52333 whole entry): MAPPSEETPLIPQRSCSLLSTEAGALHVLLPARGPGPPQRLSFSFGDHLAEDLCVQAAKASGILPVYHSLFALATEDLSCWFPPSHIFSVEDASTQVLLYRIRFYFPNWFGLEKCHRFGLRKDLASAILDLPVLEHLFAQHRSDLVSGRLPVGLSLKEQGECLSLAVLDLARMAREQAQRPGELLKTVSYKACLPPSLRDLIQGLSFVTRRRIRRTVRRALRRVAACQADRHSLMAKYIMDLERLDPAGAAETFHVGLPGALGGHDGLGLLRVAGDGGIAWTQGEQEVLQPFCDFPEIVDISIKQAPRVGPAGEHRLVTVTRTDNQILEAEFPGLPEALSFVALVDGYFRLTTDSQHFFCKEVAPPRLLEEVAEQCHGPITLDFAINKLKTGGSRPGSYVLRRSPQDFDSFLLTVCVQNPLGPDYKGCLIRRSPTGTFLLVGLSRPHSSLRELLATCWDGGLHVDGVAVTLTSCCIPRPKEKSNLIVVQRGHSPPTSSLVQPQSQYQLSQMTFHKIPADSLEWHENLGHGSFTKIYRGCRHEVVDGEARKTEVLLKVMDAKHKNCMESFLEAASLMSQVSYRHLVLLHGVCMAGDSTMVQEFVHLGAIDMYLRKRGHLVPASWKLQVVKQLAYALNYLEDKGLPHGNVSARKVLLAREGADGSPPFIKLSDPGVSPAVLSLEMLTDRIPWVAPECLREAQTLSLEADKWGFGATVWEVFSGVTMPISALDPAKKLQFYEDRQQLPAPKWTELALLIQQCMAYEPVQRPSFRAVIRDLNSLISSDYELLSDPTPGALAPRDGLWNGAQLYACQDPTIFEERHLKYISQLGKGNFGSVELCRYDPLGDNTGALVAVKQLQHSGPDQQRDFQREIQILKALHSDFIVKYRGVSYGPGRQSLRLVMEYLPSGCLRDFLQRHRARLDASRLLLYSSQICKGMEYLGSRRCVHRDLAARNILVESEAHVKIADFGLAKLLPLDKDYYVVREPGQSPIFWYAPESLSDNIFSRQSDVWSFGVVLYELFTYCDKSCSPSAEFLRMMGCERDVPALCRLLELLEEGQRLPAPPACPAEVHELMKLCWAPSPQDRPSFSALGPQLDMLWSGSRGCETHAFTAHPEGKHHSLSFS

[2] = biological target: Cyclin-dependent kinase 2 (Homo sapiens, UniProt P24941); assay: Inhibition of recombinant CDK2 using RbING as substrate after 2 hrs by luminometric assay
[3] = biological target: Non-receptor tyrosine-protein kinase TYK2 (Homo sapiens, UniProt P29597); assay: Inhibition of TYK2
Chain of Non-receptor tyrosine-protein kinase TYK2 (P29597 whole entry): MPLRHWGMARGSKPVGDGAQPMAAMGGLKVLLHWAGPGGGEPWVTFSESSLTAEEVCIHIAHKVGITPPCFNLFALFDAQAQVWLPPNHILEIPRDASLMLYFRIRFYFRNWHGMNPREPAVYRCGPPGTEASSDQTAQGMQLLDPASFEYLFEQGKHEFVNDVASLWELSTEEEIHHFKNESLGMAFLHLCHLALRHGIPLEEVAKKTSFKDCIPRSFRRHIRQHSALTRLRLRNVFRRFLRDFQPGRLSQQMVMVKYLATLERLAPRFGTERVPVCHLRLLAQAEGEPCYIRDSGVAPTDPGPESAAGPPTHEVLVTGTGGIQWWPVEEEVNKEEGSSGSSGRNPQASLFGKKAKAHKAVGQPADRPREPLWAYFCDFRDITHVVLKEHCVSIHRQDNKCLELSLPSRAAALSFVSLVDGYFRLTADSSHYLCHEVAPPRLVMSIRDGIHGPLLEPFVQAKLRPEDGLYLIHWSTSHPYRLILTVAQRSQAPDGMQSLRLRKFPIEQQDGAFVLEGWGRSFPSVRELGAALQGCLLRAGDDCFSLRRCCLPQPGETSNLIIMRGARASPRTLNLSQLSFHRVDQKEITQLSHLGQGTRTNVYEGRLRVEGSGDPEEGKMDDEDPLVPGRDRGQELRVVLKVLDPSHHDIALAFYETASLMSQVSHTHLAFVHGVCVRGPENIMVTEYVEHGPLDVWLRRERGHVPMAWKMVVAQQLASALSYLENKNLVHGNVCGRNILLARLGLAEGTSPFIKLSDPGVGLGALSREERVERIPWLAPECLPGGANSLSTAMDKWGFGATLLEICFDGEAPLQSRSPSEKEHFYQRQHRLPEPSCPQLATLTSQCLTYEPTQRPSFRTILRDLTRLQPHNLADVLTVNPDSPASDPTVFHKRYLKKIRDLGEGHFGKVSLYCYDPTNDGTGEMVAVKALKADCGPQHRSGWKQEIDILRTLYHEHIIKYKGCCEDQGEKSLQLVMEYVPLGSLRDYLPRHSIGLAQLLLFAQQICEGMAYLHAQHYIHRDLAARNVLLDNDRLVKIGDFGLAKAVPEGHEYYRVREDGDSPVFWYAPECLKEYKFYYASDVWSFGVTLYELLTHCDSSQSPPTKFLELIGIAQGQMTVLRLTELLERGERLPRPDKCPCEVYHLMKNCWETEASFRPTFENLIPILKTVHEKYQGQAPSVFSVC

[4] = biological target: Tyrosine-protein kinase JAK1 (Homo sapiens, UniProt P23458); assay: Inhibition of recombinant JAK1 using poly(Glu,Ala,Tyr) as substrate after 2 hrs by luminometric assay
Chain of Tyrosine-protein kinase JAK1 (P23458 whole entry): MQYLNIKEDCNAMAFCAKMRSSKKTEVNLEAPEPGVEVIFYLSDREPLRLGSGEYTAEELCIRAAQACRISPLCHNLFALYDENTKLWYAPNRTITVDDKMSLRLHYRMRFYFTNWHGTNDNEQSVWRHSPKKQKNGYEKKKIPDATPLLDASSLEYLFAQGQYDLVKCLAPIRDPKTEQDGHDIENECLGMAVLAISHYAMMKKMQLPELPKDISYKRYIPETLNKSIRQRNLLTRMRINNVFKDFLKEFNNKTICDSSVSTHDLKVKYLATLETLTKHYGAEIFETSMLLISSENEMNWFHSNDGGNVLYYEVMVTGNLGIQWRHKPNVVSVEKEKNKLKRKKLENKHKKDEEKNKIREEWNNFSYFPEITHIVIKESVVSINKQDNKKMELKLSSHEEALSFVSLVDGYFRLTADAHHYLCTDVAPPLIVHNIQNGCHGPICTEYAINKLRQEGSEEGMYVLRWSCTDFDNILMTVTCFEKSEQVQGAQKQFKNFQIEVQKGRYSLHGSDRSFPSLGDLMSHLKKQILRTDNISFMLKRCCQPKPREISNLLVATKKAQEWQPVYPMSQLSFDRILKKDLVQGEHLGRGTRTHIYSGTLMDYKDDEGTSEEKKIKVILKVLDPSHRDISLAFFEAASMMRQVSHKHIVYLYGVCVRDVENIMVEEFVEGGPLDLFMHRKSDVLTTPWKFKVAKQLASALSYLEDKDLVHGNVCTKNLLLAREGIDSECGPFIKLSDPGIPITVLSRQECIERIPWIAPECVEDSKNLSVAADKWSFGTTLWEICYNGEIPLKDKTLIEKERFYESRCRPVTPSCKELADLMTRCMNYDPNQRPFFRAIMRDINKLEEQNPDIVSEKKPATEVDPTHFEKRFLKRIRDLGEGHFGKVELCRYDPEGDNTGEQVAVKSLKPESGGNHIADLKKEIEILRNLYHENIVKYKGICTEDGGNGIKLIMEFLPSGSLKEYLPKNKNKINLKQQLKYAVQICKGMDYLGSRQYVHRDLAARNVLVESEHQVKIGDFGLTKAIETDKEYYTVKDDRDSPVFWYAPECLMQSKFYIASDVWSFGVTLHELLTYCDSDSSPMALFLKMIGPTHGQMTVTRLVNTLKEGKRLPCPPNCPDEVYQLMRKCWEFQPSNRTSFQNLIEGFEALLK

[5] = biological target: Tyrosine-protein kinase JAK2 (Homo sapiens, UniProt O60674); assay: Inhibition of recombinant JAK2 using poly(Glu,Ala,Tyr) as substrate after 2 hrs by luminometric assay
Chain of Tyrosine-protein kinase JAK2 (O60674 whole entry): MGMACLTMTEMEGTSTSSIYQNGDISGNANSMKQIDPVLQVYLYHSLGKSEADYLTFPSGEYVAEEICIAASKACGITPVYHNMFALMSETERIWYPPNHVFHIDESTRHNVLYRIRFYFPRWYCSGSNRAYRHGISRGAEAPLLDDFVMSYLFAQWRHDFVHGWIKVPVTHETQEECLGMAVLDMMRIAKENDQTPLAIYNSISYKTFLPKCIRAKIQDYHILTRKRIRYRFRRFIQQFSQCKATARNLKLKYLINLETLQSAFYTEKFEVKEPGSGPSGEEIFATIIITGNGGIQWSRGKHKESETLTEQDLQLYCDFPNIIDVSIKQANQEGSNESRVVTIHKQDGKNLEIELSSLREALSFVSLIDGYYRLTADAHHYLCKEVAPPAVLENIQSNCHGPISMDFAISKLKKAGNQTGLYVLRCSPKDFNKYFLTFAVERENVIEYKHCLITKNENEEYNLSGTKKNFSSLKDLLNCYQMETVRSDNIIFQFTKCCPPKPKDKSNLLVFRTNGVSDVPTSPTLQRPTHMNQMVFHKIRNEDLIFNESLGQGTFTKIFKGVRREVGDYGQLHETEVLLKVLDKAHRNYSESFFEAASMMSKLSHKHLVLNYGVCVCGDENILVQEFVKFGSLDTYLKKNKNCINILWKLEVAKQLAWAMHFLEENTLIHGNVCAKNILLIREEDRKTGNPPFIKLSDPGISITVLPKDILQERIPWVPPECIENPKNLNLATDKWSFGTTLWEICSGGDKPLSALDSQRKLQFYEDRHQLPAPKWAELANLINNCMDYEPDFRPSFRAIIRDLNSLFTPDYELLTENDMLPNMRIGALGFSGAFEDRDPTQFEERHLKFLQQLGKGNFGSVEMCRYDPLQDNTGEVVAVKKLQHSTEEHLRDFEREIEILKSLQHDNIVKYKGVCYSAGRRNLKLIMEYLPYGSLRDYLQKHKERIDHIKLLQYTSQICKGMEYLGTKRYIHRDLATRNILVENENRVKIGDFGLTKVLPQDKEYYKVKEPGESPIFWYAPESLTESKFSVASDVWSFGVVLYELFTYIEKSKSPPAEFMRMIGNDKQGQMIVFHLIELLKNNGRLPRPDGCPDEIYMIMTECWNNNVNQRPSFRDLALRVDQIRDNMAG

[6] = biological target: T2, Receptor-type tyrosine-protein kinase FLT3 (Homo sapiens, UniProt P36888); assay: Inhibition of recombinant FLT3 using poly(Glu,Tyr) as substrate after 2 hrs by luminometric assay
T2 sequence (P36888 whole entry): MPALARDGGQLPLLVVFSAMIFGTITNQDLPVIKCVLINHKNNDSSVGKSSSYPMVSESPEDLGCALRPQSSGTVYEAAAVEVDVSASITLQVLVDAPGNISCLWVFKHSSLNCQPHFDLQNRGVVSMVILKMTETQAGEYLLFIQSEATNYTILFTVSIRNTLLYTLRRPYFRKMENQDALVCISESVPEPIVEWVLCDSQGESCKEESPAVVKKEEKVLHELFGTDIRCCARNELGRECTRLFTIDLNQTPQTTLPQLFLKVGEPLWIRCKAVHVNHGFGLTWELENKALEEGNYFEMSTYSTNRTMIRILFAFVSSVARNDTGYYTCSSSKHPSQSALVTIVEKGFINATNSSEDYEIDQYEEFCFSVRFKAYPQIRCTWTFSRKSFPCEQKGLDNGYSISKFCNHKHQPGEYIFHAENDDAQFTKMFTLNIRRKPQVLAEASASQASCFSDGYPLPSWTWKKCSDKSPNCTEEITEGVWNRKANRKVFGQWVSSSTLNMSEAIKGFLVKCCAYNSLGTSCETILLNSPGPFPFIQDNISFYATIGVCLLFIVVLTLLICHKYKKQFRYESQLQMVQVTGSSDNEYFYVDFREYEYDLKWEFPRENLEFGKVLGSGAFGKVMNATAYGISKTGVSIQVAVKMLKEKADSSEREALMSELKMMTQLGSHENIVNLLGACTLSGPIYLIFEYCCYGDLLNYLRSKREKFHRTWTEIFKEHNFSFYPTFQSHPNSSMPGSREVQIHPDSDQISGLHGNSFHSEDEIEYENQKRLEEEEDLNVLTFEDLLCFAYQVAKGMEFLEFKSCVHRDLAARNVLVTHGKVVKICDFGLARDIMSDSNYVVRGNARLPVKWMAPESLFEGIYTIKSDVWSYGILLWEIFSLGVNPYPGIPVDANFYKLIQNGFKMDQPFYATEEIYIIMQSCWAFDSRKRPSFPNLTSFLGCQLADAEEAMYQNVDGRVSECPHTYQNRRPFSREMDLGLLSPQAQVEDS

[7] = Half life in mouse liver microsomes; type: ADME, Microsome
[8] = Half life in human liver microsomes; type: ADME, Microsome
[9] = tested on: BaF3; assay: Antiproliferative activity against mouse BAF3 cells expressing JAK2 V617F mutant after 48 hrs by luciferase reporter gene assay; type: functional; settings: BaF3, 48 h
[10] = tested on: HL-60; assay: Antiproliferative activity against human HL60 cells expressing FLT3 after 48 hrs by luciferase reporter gene assay; type: functional; settings: HL-60, 48 h
[11] = biological target: Cytochrome P450 3A4 (Homo sapiens, UniProt P08684); assay: Inhibition of CYP3A4 in human liver microsomes using testosterone as substrate by LC-MS/MS analysis; type: ADME, Microsome
Chain of Cytochrome P450 3A4 (P08684 whole entry): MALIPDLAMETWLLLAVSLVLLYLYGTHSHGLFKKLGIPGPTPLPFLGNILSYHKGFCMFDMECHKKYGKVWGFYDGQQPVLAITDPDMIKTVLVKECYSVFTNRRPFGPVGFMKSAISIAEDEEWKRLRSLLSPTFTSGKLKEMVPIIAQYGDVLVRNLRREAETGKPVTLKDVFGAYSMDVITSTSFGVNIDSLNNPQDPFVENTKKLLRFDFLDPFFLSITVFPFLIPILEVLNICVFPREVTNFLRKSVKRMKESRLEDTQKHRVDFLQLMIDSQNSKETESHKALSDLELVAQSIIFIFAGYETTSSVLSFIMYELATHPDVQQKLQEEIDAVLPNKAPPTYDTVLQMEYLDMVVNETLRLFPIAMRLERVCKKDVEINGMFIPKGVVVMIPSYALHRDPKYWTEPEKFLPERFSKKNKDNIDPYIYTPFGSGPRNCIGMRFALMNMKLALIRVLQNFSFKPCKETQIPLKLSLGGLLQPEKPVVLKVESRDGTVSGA

[12] = Kinetic solubility in PBS buffer at pH 7; type: physicochemical; settings: read-out: Kinetic_solubility
[13] = biological target: Cytochrome P450 2D6 (Homo sapiens, UniProt P10635); assay: Inhibition of CYP2D6 in human liver microsomes using dextromethorphan as substrate by LC-MS/MS analysis; type: ADME, Microsome
Chain of Cytochrome P450 2D6 (P10635 whole entry): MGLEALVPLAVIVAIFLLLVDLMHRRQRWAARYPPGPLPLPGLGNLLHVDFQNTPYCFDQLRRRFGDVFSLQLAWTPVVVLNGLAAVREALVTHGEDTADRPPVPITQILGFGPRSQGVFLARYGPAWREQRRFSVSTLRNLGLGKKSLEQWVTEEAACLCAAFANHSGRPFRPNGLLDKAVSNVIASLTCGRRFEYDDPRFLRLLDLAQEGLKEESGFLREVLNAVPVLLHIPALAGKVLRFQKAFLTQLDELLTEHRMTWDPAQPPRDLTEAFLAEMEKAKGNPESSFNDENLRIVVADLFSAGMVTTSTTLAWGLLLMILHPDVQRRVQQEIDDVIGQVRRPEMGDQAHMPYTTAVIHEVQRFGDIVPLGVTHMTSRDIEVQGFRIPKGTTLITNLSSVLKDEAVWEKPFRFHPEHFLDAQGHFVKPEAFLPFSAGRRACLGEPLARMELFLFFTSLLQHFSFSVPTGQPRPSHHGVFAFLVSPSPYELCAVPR

[14] = biological target: Voltage-gated inwardly rectifying potassium channel KCNH2 (Homo sapiens, UniProt Q12809); assay: Displacement of dofetilide from human ERG
[15] = Selectivity ratio of IC50 for recombinant JAK3 to IC50 for recombinant JAK2
[16] = Selectivity ratio of IC50 for recombinant CDK2 to IC50 for recombinant JAK2
[17] = Selectivity ratio of IC50 for recombinant JAK1 to IC50 for recombinant JAK2

| SMILES | pIC50 [1] | pIC50 [2] | pIC50 [3] | pIC50 [4] | pIC50 [5] | pIC50 [6] | half-life [7] | half-life [8] | GI50 [9] | GI50 [10] | pIC50 [11] | solubility kinetic [12] | pIC50 [13] | Ratio IC50 [15] | Ratio IC50 [16] | Ratio IC50 [17] | pIC50 [14] |
| --- | --- | --- | --- | --- | --- | --- | --- | --- | --- | --- | --- | --- | --- | --- | --- | --- | --- |
| C1=C/COCc2cncc(c2)-c2ccnc(n2)Nc2cccc(c2)COC/1 | < 5.00 | 6.70 | 6.02 | < 5.00 | 6.03 | 6.25 |  |  |  |  |  |  |  |  |  |  |  |
| CN1C/C=C/COCC2CCCN(C2)c2ccnc(n2)Nc2cccc(c2)C1 (mixture of isomers) | < 5.00 | < 5.00 | < 5.00 | < 5.00 | < 5.00 | < 5.00 |  |  |  |  |  |  |  |  |  |  |  |
| CN1C/C=C/CCn2ccc3ccc(cc32)-c2ccnc(n2)Nc2cccc(c2)C1 (mixture of isomers) | < 5.00 | 7.11 | 5.82 | 6.00 |  | 7.03 |  |  |  |  |  |  |  |  |  |  |  |
| C1=C/Cn2ccc3ccc(cc32)-c2ccnc(n2)Nc2cccc(c2)COC/1 (mixture of isomers) | < 5.00 | 7.08 |  | 5.32 |  | 7.14 |  |  |  |  |  |  |  |  |  |  |  |
| CN1C/C=C/CCOc2cc(ccn2)-c2ccnc(n2)Nc2cccc(c2)C1 (mixture of isomers) | < 5.00 | 7.66 | 7.19 | 6.77 | 6.59 | 6.51 |  |  |  |  |  |  |  |  |  |  |  |
| CN1C/C=C/COCc2cncc(c2)-c2ccnc(n2)Nc2cccc(c2)C1 (mixture of isomers) | < 5.00 | 6.38 | 5.23 | < 5.00 | < 5.00 | 5.32 |  |  |  |  |  |  |  |  |  |  |  |
| CN1C/C=C/COCC2=CC=C(O2)c2ccnc(n2)Nc2cccc(c2)C1 (mixture of isomers) | < 5.00 | 6.49 | 5.82 | 5.74 | 6.09 | 6.11 |  |  |  |  |  |  |  |  |  |  |  |
| C1=C2COC/C=C/COCc3cccc(c3)Nc3nccc(n3)C(=C1)O2 (mixture of isomers) | < 5.00 | 6.17 | 6.17 | 5.10 | 6.66 | 6.21 |  |  |  |  |  |  |  |  |  |  |  |
| C1=C/Cn2ccc3ccc(cc32)-c2ccnc(n2)Nc2ccc(OCCN3CCCC3)c(c2)COC/1 (mixture of isomers) | 5.94 | 6.64 |  |  | 7.20 | 8.10 |  |  |  |  |  |  |  |  |  |  |  |
| Cc1cnc2nc1-c1ccc3ccn(c3c1)C/C=C/COCc1cc(ccc1OCCN1CCCC1)N2 (mixture of isomers) | < 5.00 | 5.60 | 6.36 | 5.29 | 6.43 | 7.77 |  |  |  |  |  |  |  |  |  |  |  |
| C1=C/COCc2cc(ccc2OCCN2CCCC2)Nc2nccc(n2)-c2cncc(c2)COC/1 (mixture of isomers) | 6.00 | 5.49 | 6.20 | < 5.00 | 6.54 | 7.20 |  |  |  |  |  |  |  |  |  |  |  |
| C1=C/COCc2cc(ccc2OCCN2CCCC2)Nc2nccc(n2)-c2ccnc(c2)OCC/1 (mixture of isomers) | 5.85 | 6.57 | 7.52 | 6.01 | 7.74 | 7.51 |  |  |  |  |  |  |  |  |  |  |  |
| COCCOc1ccc2cc1CN(C)C/C=C/COCC1=CC=C(S1)c1ccnc(n1)N2 (mixture of isomers) | < 5.00 | 6.48 | 7.48 | 6.41 | 6.77 | 7.66 |  |  |  |  |  |  |  |  |  |  |  |

Second part, led by results:

| pIC50 [1] | pIC50 [2] | pIC50 [3] | pIC50 [4] | pIC50 [5] | pIC50 [6] | half-life [7] | half-life [8] | GI50 [9] | GI50 [10] | pIC50 [11] | solubility kinetic [12] | pIC50 [13] | Ratio IC50 [15] | Ratio IC50 [16] | Ratio IC50 [17] | SMILES | pIC50 [14] |
| --- | --- | --- | --- | --- | --- | --- | --- | --- | --- | --- | --- | --- | --- | --- | --- | --- | --- |
| < 5.00 | 5.80 | 6.15 | 6.19 |  | 6.92 |  |  |  |  |  |  |  |  |  |  | CN1C/C=C/COCC2=CC=C(O2)c2ccnc(n2)Nc2ccc(OCCN3CCCC3)c(c2)C1 (mixture of isomers) |  |
| < 5.00 | 6.15 | 7.39 | 6.70 | 7.05 | 7.92 |  |  |  |  |  |  |  |  |  |  | CN1C/C=C/COCC2=CC=C(S2)c2ccnc(n2)Nc2ccc(OCCN3CCCC3)c(c2)C1 (mixture of isomers) |  |
| < 5.00 | 5.07 | 6.23 | 5.49 | 5.96 | 5.92 |  |  |  |  |  |  |  |  |  |  | COCCOc1ccc2cc1CN(C)C/C=C/COCC1=CC=C(O1)c1ccnc(n1)N2 (mixture of isomers) |  |
| 5.04 | < 5.00 | 6.51 | 5.72 | 6.96 | 6.74 |  |  |  |  |  |  |  |  |  |  | C1=C/COCc2cc(ccc2OCCN2CCCC2)Nc2nccc(n2)-c2cc(co2)COC/1 (mixture of isomers) |  |
| 6.19 | 5.54 | 7.49 | 6.38 | 8.14 | 7.62 | 27 min | > 60 min | 55 nM | 200 nM | < 5.00 | 154 µg/mL | < 5.00 |  |  |  | C1=C2COC/C=C/COCc3cc(ccc3OCCN3CCCC3)Nc3nccc(n3)C(=C1)S2 (mixture of isomers) | 5.14 |
| 6.17 | 5.17 | 7.33 | 5.82 | 7.77 | 7.35 | 25 min | > 60 min | 80 nM | 640 nM |  | 218 µg/mL |  | 40 | 400 | 88 | C1=C/COCc2cc(ccc2OCCN2CCCC2)Nc2nccc(n2)-c2csc(c2)COC/1 (mixture of isomers) |  |
| 5.06 | < 5.00 | 6.92 | 5.52 | 7.17 | 7.32 | 18 min | > 60 min |  | 710 nM | < 5.00 | > 250 µg/mL | < 5.00 | 131 | > 149 | 45 | C1=C/COCc2cc(ccc2OCCN2CCCC2)Nc2nccc(n2)-c2coc(c2)COC/1 (mixture of isomers) |  |
|  |  |  |  |  |  |  |  |  |  |  |  |  | 89 | 397 | 57 | C1=C/COCc2cc(ccc2OCCN2CCCC2)Nc2nccc(n2)-c2ccc(s2)COC/1 (mixture of isomers) |  |
